{"source": "patent US20120258975A1", "about": "“Potent Small Molecule Inhibitors of Autophagy, and Methods of Use Thereof” (Shanghai Institute of Organic Chemistry, priority 2009, published 2012)", "key": {"Vps34 complexes [1]": {"system": "Vps34 complexes", "assay": "Levels of endogenous Beclin1, Vps34, Atg14L in H4 and 293T cells (western blot)", "details": "for levels of endogenous Beclin1 in the presence of CHX: 293T cells, 6 h, versus CHX alone; for levels of endogenous Beclin1, Vps34 and Atg14L: H4 cells and 293T cells, 10 μM, 3-MA 10 mM", "method": "Twenty-four hours after the transfection, the cells were treated with indicated compounds for 12 h. The cell lysates were analyzed by western blotting using anti-HA, anti-flag or anti-tubulin. […] The cell lysates were harvested and analyzed by western blotting using: anti-Beclin1, anti-Atg14, anti-Vps34 and anti-UVRAG. Anti-α-tubulin was used as loading controls. […] The cell lysates were harvested and analyzed by western blotting using: anti-Beclin1 and anti-LC3. Anti-α-tubulin was used as loading controls."}, "LC3-GFP (H4-LC3 cells)": {"system": "LC3-GFP (H4-LC3 cells)", "assay": "LC3-GFP image-based autophagy assay in H4-LC3 cells", "format": "cell-based", "protocol": "FIG. 1 relates to identification of a small molecule inhibitor of autophagy by an image-based screen. A, structure of MBCQ. B, Quantitative analysis of LC3-GFP spot number per cell (a), spot size per cell (b), spot intensity per cell (c). The data are expressed as % of control vehicle treated cells. H4-LC3 cells were seeded in 96 well-plates and incubated with vehicle control (1% DMSO), 0.2 μM rapamycin with or without 10 μM MBCQ for indicated time, fixed with 4% paraformaldehyde and stained with 4,6-diamidino-2-phenylindole (DAPI, 3 μg/ml). Images of 1000 cells for each compound treatment were analyzed by ArrayScan HCS 4.0 Reader with a 20× objective (Cellomics, Pittsburgh, Pa.).\n(§1) FIG. 14 depicts MBCQ derivatives that can inhibit autophagy. To calculate EC50, H4-LC3 cells were seeded in 96 well-plates and cultured in the presence of compounds in different concentration for 24 h, and then fixed with polyformate and stained with 4,6-diamidino-2-phenylindole (DAPI, 3 μg/ml). Images data were collected with an ArrayScan HCS 4.0 Reader with a 20× objective (Cellomics, Pittsburgh, Pa.) for DAPI labeled nuclei and GFP-LC3, a marker for autophagy. The Spot Detector Bio-Application was used to acquire and analyze the images after optimization. Images of 1000 cells for each compound treatment were analyzed to obtain average cell number per field, fluorescence spot number, area and intensity per cell. DMSO and rapamycin were used as negative or positive control, respectively. The percentages of changes of LC3-GFP were calculated by dividing with that of DMSO treated samples. Each treatment was done in triplicate for mean and SD. The images were also analyzed using a conventional fluorescence microscope for visual inspection. The experiments were repeated three times\nas §1, with “15” for “14”, “with reduced or no ability to” for “that can”, “times.” for “times”\nTo explore the mechanism of autophagy and identify additional small molecules that can activate it, a high-throughput image-based screen for autophagy regulators was developed. This system takes advantage of the localization of light chain 3 coupled to GFP (LC3-GFP) to autophagosomal membrane upon induction of autophagy (Zhang, L., Yu, J., Pan, H., Hu, P., Hao, Y., Cai, W., Zhu, H., Yu, A. D., Xie, X., Ma, D., et al. (2007). Small molecule regulators of autophagy identified by an image-based high-throughput screen. Proc Natl Acad Sci USA 104, 19023-19028). […] Compounds that increase cellular levels of LC3-GFP, however, are not necessarily able to increase degradative activity of autophagy. Instead, the increases of LC3-GFP may be associated with cell death or may be a result of lysosomal defect and thus associated with blockage of autophagy. […]"}, "PDE5": {"target": "PDE5 (Homo sapiens, UniProt O76074)", "assay": "Determination of % inhibition of PDE5 activity", "format": "biochemical"}, "Vps34 complexes [2]": {"system": "Vps34 complexes", "assay": "Levels of transfected Vps34 complex proteins in 293T cells (western blot)", "format": "cell-based", "details": "for levels of GFP-p150 and Atg14L: 10 μM, 4 h; for levels of flag-tagged Beclin1 and HA-Vps34: 12 h"}, "bax/bak DKO MEF cells": {"system": "bax/bak DKO MEF cells", "assay": "Etoposide induced cell death of bax/bak DKO cells", "format": "cell-based, mouse", "details": "MBCQ 10 μM; for cell death induced by etoposide: etoposide 8 μM, spautin 10 μM, 3-MA 10 mM, 8 h", "protocol": "C, cells were collected for western blotting using anti-LC3 antibody. α-tubulin was used as a control. D-F, Bax/bak DKO cells were treated with spautin (10 μM) or indicated concentration, in the presence of or absent etoposide (8 μM) for 8 h or indicated time. […] F, Cells were collected for western blotting using anti-LC3 antibody. α-tubulin was used as a control.\nAutophagy has been proposed to contribute to cell death in a number of apoptotic deficient cell types. For example, bax/bak double deficient mouse embryonic fibroblast cells (DKO mefs) are highly resistant to apoptosis (Wei, M. C., Zong, W. X., Cheng, E. H., Lindsten, T., Panoutsakopoulou, V., Ross, A. J., Roth, K. A., MacGregor, G. R., Thompson, C. B., and Korsmeyer, S. J. (2001). Proapoptotic BAX and BAK: a requisite gateway to mitochondrial dysfunction and death. Science 292, 727-730)."}, "PtdIns3P": {"system": "PtdIns3P", "assay": "Lipid dot blot assay for cellular PtdIns3P", "format": "cell-based, mouse", "details": "10 μM, 3 h; basal and rapamycin treated cells", "protocol": "FIG. 9 depicts results showing that MBCQ and C43 (spautin) selectively reduce the cellular levels of PtdIns3P. MEF cells were treated with DMSO (0.1%), RAPA (0.2 μM) alone, A, MBCQ (10 μM) or B, C43 (spautin) (10 μM) with or without RAPA (0.2 μM) for 3 h. The cellular PtdIns species were extracted and applied onto polyvinylidene fluoride membrane. The levels of PtdIns3P were detected using GST-PX domain protein and anti-GST antibody.\nTo further determine the effect of MBCQ on the cellular levels of PtdIns3P, a lipid dot blot assay was used. The cellular PtdIns species were extracted and applied onto polyvinylidene fluoride membrane. The levels of PtdIns3P was detected using GST-PX domain protein and anti-GST antibody. […] Taken together, it was concluded that MBCQ reduces the levels of PtdIns3P."}}, "note": "“And” between values parts separate entries of the source, which are not always exact repeats. Equal entries are not always repeated. “Also recorded” adds a separate entry of the source. Where two headings read alike, the source gives them in different places.", "data": [{"smiles": "Clc1ccc2ncnc(NCc3ccc4c(c3)OCO4)c2c1", "note": "[MBCQ]", "values": [{"measurement": "levels of endogenous Beclin1 in the presence of CHX", "setting": "Vps34 complexes [1]", "value": "notably lower"}, {"measurement": "levels of endogenous Beclin1, Vps34 and Atg14L", "setting": "Vps34 complexes [1]", "value": "reduce the levels of endogenous Beclin1, Vps34 and Atg14L"}, {"measurement": "fold more potent than 3-MA", "setting": "LC3-GFP (H4-LC3 cells); IC50 versus 3-MA working concentration of 10 mM", "value": "about 10,000 fold"}, {"measurement": "LC3-GFP dots (number, spot size, spot intensity)", "setting": "LC3-GFP (H4-LC3 cells); basal and rapamycin (0.2 μM) stimulated, 10 μM MBCQ", "value": "reduced the number, spot size as well as spot intensity"}, {"measurement": "IC50", "setting": "LC3-GFP (H4-LC3 cells); rapamycin and MBCQ together versus rapamycin alone, read-out: IC50 (intensity of LC3-GFP)", "value": 788, "unit": "nM"}, {"measurement": "% Inhibition of PDE5 activity, Average", "setting": "PDE5; Concentration = 0.2 μM", "value": 54.4, "unit": "%"}, {"measurement": "% Inhibition of PDE5 activity, Average", "setting": "PDE5; Concentration = 2 μM", "value": 91.0, "unit": "%"}, {"measurement": "% Inhibition of PDE5 activity, Average", "setting": "PDE5; Concentration = 20 μM", "value": 98.8, "unit": "%"}, {"measurement": "levels of GFP-p150 and Atg14L", "setting": "Vps34 complexes [2]", "value": "reduced the levels"}, {"measurement": "levels of flag-tagged Beclin1 and HA-Vps34", "setting": "Vps34 complexes [2]", "value": "considerably lower"}, {"measurement": "levels of LC3II in etoposide treated cells", "setting": "bax/bak DKO MEF cells", "value": "reduced in the presence of MBCQ"}, {"measurement": "cell death induced by etoposide", "setting": "bax/bak DKO MEF cells", "value": "significantly reduced cell death; also recorded: inhibits etoposide induced death"}, {"measurement": "cellular levels of PtdIns3P", "setting": "PtdIns3P", "value": "selectively reduced the cellular levels of PtdIns3P"}]}, {"smiles": "Fc1ccc(CNc2ncnc3ccc(F)cc23)cc1", "note": "[C43, 6-fluoro-N-(4-fluorobenzyl)quinazolin-4-amine]", "values": [{"measurement": "levels of endogenous Beclin1 in the presence of CHX", "setting": "Vps34 complexes [1]", "value": "notably lower"}, {"measurement": "levels of endogenous Beclin1, Vps34 and Atg14L", "setting": "Vps34 complexes [1]", "value": "reduce the levels of endogenous Beclin1, Vps34 and Atg14L"}, {"measurement": "IC50", "setting": "LC3-GFP (H4-LC3 cells); cell-based assays, read-out: IC50, inhibition of autophagy", "value": "870 nM and ~800 nM"}, {"measurement": "inhibiting activity towards PDE5 and other PDEs", "setting": "PDE5; compared with MBCQ", "value": "much reduced inhibiting activity"}, {"measurement": "levels of GFP-p150 and Atg14L", "setting": "Vps34 complexes [2]", "value": "reduced the levels"}, {"measurement": "levels of flag-tagged Beclin1 and HA-Vps34", "setting": "Vps34 complexes [2]", "value": "considerably lower"}, {"measurement": "degradation of GFP-Beclin1, pathway", "setting": "Vps34 complexes [2]; with MG132 or NH4Cl", "value": "promotes the degradation of Beclin1 through the proteasomal pathway"}, {"measurement": "cell death induced by etoposide", "setting": "bax/bak DKO MEF cells", "value": "inhibits etoposide induced death"}, {"measurement": "cellular levels of PtdIns3P", "setting": "PtdIns3P", "value": "selectively reduced the cellular levels of PtdIns3P"}]}]}
